Experimental data from ChEMBL document CHEMBL1148250, “MexAB-OprM specific efflux pump inhibitors in Pseudomonas aeruginosa. Part 4: Addressing the problem of poor stability due to photoisomerization of an acrylic acid moiety” (2004).

Tests used:
Type in all cases: functional
Pseudomonas aeruginosa [1] = assay: Minimum concentration (using PAM1723, a strain of Pseudomonas aeruginosa) required to reduce antibacterial activity by 4 folds for Levofloxacin
Pseudomonas aeruginosa [2] = assay: Minimum concentration (using PAM1723, a strain of Pseudomonas aeruginosa) required to reduce antibacterial activity by 8 folds for Levofloxacin
Pseudomonas aeruginosa [3] = assay: Minimum concentration (using PAM1723, a strain of Pseudomonas aeruginosa) required to reduce antibacterial activity by 8 folds for aztreonam in the absence of human serum albumin
Pseudomonas aeruginosa [4] = assay: Minimum concentration (using PAM1723, a strain of Pseudomonas aeruginosa) required to reduce antibacterial activity by 8 folds for aztreonam in the presence 0.125% of human serum albumin

Row | SMILES | MPC4 (Pseudomonas aeruginosa [1]) [µg/mL] | MPC8 (Pseudomonas aeruginosa [2]) [µg/mL] | MPC8 (Pseudomonas aeruginosa [3]) [µg/mL] | MPC8 (Pseudomonas aeruginosa [4]) [µg/mL]
1 | CC(C)(C)c1csc(NC(=O)c2ccn3c(=O)c(/C=C/c4nnn[nH]4)c(N4CCC[C@@H](OC(N)=O)C4)nc3c2)n1 | <0.25 | 0.5 | <0.25 | 2
2 | CC(C)c1csc(CCc2ccn3c(=O)c(/C=C/C(=O)O)c(N4CCCC(O)C4)nc3c2)n1 (stereo unspecified) | 0.5 | 8 | 8 | 16
3 | CC(C)(C)c1csc(NC(=O)c2ccn3c(=O)c(/C=C/C(=O)O)c(N4CCC[C@@H](OC(N)=O)C4)nc3c2)n1 | <0.25 | 1 | 0.5 | 1
4 | CC(C)(C)c1csc(NC(=O)c2ccn3c(=O)c(/C=C/c4nn[nH]n4)c(N4CCC[C@H](OC(N)=O)C4)nc3c2)n1 | 0.5 | 2 | 1 | 4
